A word on the LD50: it is the dose expected to kill half of the subjects tested. Lower therefore signals a more toxic substance.

In brackets after ≈: the same amount, converted by molar mass.

Series [1] concerns Mycobacterium tuberculosis. Description: microbe, parasite or virus in culture. To be noted: H37Rv, 240 h.
Description: Tuberculostatic activity against Mycobacterium tuberculosis H37Rv assessed as induction of penetration size stunting incubated for 10 days by vertical diffusion method
A further series deals with Mycobacterium avium. Format: functional. To be noted: 240 h.
Series [2] is described as follows: Toxicity in healthy mouse administered as single peroral dose measured after 14 days. Type of series: organism-based. The note with it: in vivo, po.
The next series has as its system Mycolicibacter terrae. Type of series: functional. The note with it: 240 h.
The subject of series [3] is Mycobacterium tuberculosis. Description: Antimicrobial activity against Mycobacterium tuberculosis. Format: functional.

As for `O=C(O)c1ccc(F)c(F)c1O`, the MIC (in series [1]; with Mycobacterium avium; in the series on Mycolicibacter terrae) was 1.5 µg/mL (≈ 8.62 µM) each time. The compound further returned an LD50 at 336 h in series [2] of more than 150 mg/kg.

On to `NNC(=O)c1ccncc1` [ISONIAZID], for which the MIC (in series [1]; in the series with Mycobacterium avium; with Mycolicibacter terrae) was 0.1 µg/mL (≈ 0.729 µM) each time. For the same compound, the LD50 at 336 h in series [2] is 100 mg/kg.

As to `O=C(O)c1c(O)c(F)c(F)c(F)c1F`, the MIC (in series [1]; against Mycobacterium avium; with Mycolicibacter terrae) was 0.7 µg/mL (≈ 3.33 µM) throughout. In series [2], the median lethal dose (LD50) at 336 h was determined as 100 mg/kg.

Take `O=C(O)c1cc(F)c(F)c(F)c1O`: the MIC in series [1] turned out to be 6.5 µg/mL (≈ 33.8 µM). The median lethal dose (LD50) at 336 h in series [2] was more than 100 mg/kg.

As to `O=C(O)c1cc(F)c(F)cc1O`, the MIC (in series [1]; against Mycobacterium avium; in the series on Mycolicibacter terrae) was 0.7 µg/mL (≈ 4.02 µM) in each case. In addition, the LD50 at 336 h in series [2] was more than 300 mg/kg.

Take `CC1COc2c(N3CCN(C)CC3)c(F)cc3c(=O)c(C(=O)O)cn1c23` (stereo not given) [OFLOXACIN]: the MIC (in series [1]; in the series with Mycobacterium avium; in the series on Mycolicibacter terrae) was 0.1 µg/mL (≈ 0.277 µM) each time.

With `Nc1ccc(C(=O)O)c(O)c1` [AMINOSALICYLIC ACID], the MIC is more than 250 µg/mL in series [3], 0.3 µg/mL (≈ 1.96 µM) in series [1] and 32 µg/mL (≈ 209 µM) in the series with Mycobacterium avium. This compound registered an LD50 at 336 h in series [2] of 4000 mg/kg.

The values are drawn from ChEMBL document CHEMBL3792286, “A convenient and efficient approach to polyfluorosalicylic acids and their tuberculostatic activity” (Bioorg Med Chem Lett, 2016).
